How the values were obtained:
[1] = Molar absorptivity determination; type: physicochemical;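 note: molar absorptivity derived from UV-Vis absorbance spectra recorded for each derivative on a spectrometer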
Description: The absorbance spectrum of each derivative (150 μL) was measured on a Thermo Scientific Genesys 150 UV-Vis spectrometer, using 50:50 ACN/PBS as a blank.
Molar absorptivity determination. […] The absorbance spectrum of each derivative (150 μL) was measured on a Thermo Scientific Genesys 150 UV-Vis spectrometer, using 50:50 ACN/PBS as a blank.

αS fibrils [2] = target: T1, αS fibrils (Homo sapiens, UniProt P37840); test: Fluorescence spectra with αS fibrils; type: binding; conditions: for Stokes shift / λem: presence of αS PFFs; for Stokes shift: difference between λex and λem; for λem: dye 10 μM, PFF 50 μM
T1 construct: intein-His6 (C, cleaved yes); made in house; host or cells: Escherichia coli BL21
Description: Fluorescence measurements were performed using a PTI QuantaMaster™ 40 fluorescence spectrometer. Fluorescence spectra of 10 μM probes (concentrated stock solution prepared as 10 mM in DMSO) (7b, 7c, 7d, 7e, 7f, 7g and 7h) in PBS buffer were measured by excitation at their absorbance maximum wavelength in the absence and presence of 50 μM αS fibrils (stock solution 100 μM αS fibrils in PBS buffer).
Fluorescence spectra with αS fibrils. Fluorescence measurements were performed using a PTI QuantaMaster 40 fluorescence spectrometer. Fluorescence spectra of 10 μM probes (concentrated stock solution prepared as 10 mM in DMSO) (5b-5f and 5h) in PBS buffer were measured by excitation at their absorbance maximum wavelength in the absence and presence of 50 μM αS fibrils (stock solution 100 μM αS fibrils in PBS buffer). […] FIGS. 77A-77F show fluorescence spectra of probes (5b-5f and 5h) with and without αS fibrils. Final concentrations of probes and αS fibrils were 10 μM and 50 μM, respectively. Emission spectra collected at each dye's maximum absorption wavelength. Ex/Em slit widths: 3 nm/3 nm. […] Absorbance is shown in FIG. 78A and FIG. 78B, whereas FIG. 78C and FIG. 78D show excitation spectra of probes 5j and 5k with and without αS fibrils. Final probe and fibrils concentrations were 10 μM and 50 μM, respectively. […] Emission wavelengths were 575 nm for 5j, 580 nm for 5k. Ex/Em slit widths: 3 nm/3 nm. […] Black line indicates incident light (αS fibrils without probe) and blue line indicates sample (αS fibrils with probe). Excitation at λexc=435 nm for 5j and λexc=463 nm for 5k and spectral collection (400-800 nm). Final concentrations of the probe and αS fibrils are the 100 μM. Ex/Em slit widths: 5 nm/5 nm.

αS fibrils [3] = target: T1, αS fibrils; test: Excitation spectra with αS fibrils; type: physicochemical; conditions: presence of αS PFFs; dye 10 μM, PFF 50 μM
Description: Excitation spectral measurements were performed using a PTI QuantaMaster™ 40 fluorescence spectrometer. Excitation spectra of 10 μM probes (concentrated stock solution prepared as 10 mM in DMSO) (7j, 7k, 7l, and 7m) in PBS buffer were measured in the absence and presence of 50 μM αS fibrils (stock solution 100 μM αS fibrils in PBS buffer).
Excitation spectra with αS fibrils. Excitation spectral measurements were performed using a PTI QuantaMaster 40 fluorescence spectrometer. Excitation spectra of 10 μM probes (concentrated stock solution prepared as 10 mM in DMSO) (5j and 5k) in PBS buffer were measured in the absence and presence of 50 μM αS fibrils (stock solution 100 μM αS fibrils in PBS buffer).

[4] = tested on: αS fibrils versus Aβ1-42 fibrils; test: Amyloid selectivity by plate reader, αS versus Aβ1-42 fibrils; type: binding; conditions: 5 μM fibril concentrations; probe 1 μM
Description: Experiments were performed on the Tecan Spark in Greiner 96 well flat black ½ area plates using the following parameters: excitation and emission band widths 5 nm, lag time 0 μs, integration time 40 μs. A 10 mM DMSO stock solution of probes (7j-7m) and 100 μM stock of αS fibrils were used in the study described herein.

αS fibrils [5] = target: T1, αS fibrils; test: Fluorescence lifetime measurements of probes with αS fibrils; type: physicochemical; conditions: for Fluorescence Lifetime: presence of αS PFFs, 100 μM dye and PFFs; for Lifetime: with αS fibrils in PBS buffer, probe and αS fibrils 100 μM
Description: TCSPC measurements of fluorescence lifetime decays for 100 μM dyes in the presence of 100 μM αS fibrils were collected with the PTI Quantamaster™ 40 using a pulsed LED with a maximum emission at 486 nm. Fluorescence emission was collected at the indicated wavelength for each dye with 20 nm slit widths. The IRF was collected under identical conditions. Data analysis was performed with FluoFit software using an exponential decay model.

[6] = Absorbance measurements (UV-Vis)
[7] = Fluorescence (emission) measurements; type: physicochemical;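 note: fluorescence emission spectra recorded on a spectrofluorometer, with each compound excited at its own absorption maximum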
Description: The fluorescence spectrum of each derivative (150 μL) was measured on a Photon Technology International (PTI) QuantaMaster™ 40 fluorescence spectrometer by excitation at the maximum absorption wavelength for each compound.
The fluorescence spectrum of each derivative (150 μL) was measured on a Photon Technology International (PTJ) QuantaMaster™ 40 fluorescence spectrometer by excitation at the maximum absorption wavelength for each compound.

αS fibrils [8] = target: T1, αS fibrils; test: Absorbance spectra with αS fibrils; type: physicochemical; conditions: for λabs: dye 10 μM; for ε: measured at λabs
Description: Absorption measurements were performed using Thermo Scientific Genesys 150 UV Vis spectrometer. Absorption spectra of 10 μM probes (concentrated stock solution prepared as 10 mM in DMSO) (7j, 7k, 7l, and 7m) in PBS buffer were measured in the absence and presence of 50 μM αS fibrils (stock solution 100 μM αS fibrils in PBS buffer).
Absorption measurements were performed using Thermo Scientific Genesys 150 UV Vis spectrometer. Absorption spectra of 10 μM probes (concentrated stock solution prepared as 10 mM in DMSO) (5j and 5k) in PBS buffer were measured in the absence and presence of 50 μM αS fibrils (stock solution 100 μM αS fibrils in PBS buffer).

[9] = Solvatochromic measurements; type: physicochemical; conditions: organic solvents of different polarity
Description: The remaining 850 μL solution was used to obtain fluorescence images under a handheld 365 nm UV lamp.
Solvatochromic measurements. […] The remaining 850 μL solution was used to obtain fluorescence images under a handheld 365 nm UV lamp.

[10] = ACN/PBS buffer (1:1 v/v), pH 7.4
[11] = in ACN, at maximum absorption wavelength
[12] = 25 μM in ACN/PBS buffer (1:1 v/v), pH 7.4

Structure (SMILES): Cc1c(C)n2c(/C=C/C=C/c3ccc(N(C)C)cc3)c(C)c(=O)n2c1=O [Compound 7m, 3-((1E,3E)-4-(4-(dimethylamino)phenyl)buta-1,3-dien-1-yl)-2,5,6-trimethyl-1H,7H-pyrazolo[1,2-a]pyrazole-1,7-dione]
- Molar Absorptivity (ε) [1, 10]: 36689 M⁻¹ cm⁻¹
- Molar Absorptivity (ε) [1, 11]: 28639 M⁻¹ cm⁻¹
- concentration-dependent shift in the emission maximum with αS fibrils (αS fibrils [2]): binding at multiple sites
- Stokes shift (αS fibrils [2]): 136 nm
- λem (αS fibrils [2]): 620 nm
- λex (αS fibrils [3]): 484 nm
- fluorescence turn on with αS relative to Aβ1-42 [4]: 15 fold
- Fluorescence Lifetime (αS fibrils [5]): 1.27 ns
- Lifetime (αS fibrils [5]): 1.27 ± 0.01 ns
- Absorbance λmax ([6]; 25 μM in ACN): 410 nm
- Absorbance λmax [6, 12]: 436 nm
- λabs ([6]; ACN/PBS): 436 nm
- Absorbance Wavelength ([6]; ACN:PBS buffer (50:50 v/v), Table 11): 418 nm
- Emission λmax ([7]; 25 μM in ACN): 620 nm
- Emission λmax [7, 12]: 640 nm
- maximum emission wavelength (λem) ([7]; 50:50 ACN/PBS, excitation at λabs): 640 nm
- Stokes shift ([7]; ACN/PBS): 204 nm
- Stokes shift ([7]; ACN/PBS buffer (1:1 v/v)): 204 nm
- Stokes shift ([7]; in ACN): 210 nm
- λabs (αS fibrils [8]; absence of αS PFFs): 416 nm
- ε (αS fibrils [8]; absence of αS PFFs): 19024 M⁻¹ cm⁻¹
- λabs (αS fibrils [8]; presence of αS PFFs, PFF 50 μM): 412 nm
- ε (αS fibrils [8]; presence of αS PFFs): 52234 M⁻¹ cm⁻¹
- solvatochromism / environmental sensitivity [9]: high levels of solvatochromism

Structure (SMILES): Cc1c(C)n2c(/C=C/c3ccc(N4CCOCC4)cc3)c(C)c(=O)n2c1=O [Compound 7k, (E)-2,3,6-trimethyl-5-(4-morpholinostyryl)-1H,7H-pyrazolo[1,2-a]pyrazole-1,7-dione]
- Molar Absorptivity (ε) [1, 10]: 29562 M⁻¹ cm⁻¹
- Molar Absorptivity (ε) [1, 11]: 28890 M⁻¹ cm⁻¹
- Stokes shift (αS fibrils [2]): 146 nm
- λem (αS fibrils [2]): 570 nm
- λex (αS fibrils [3]): 424 nm
- fluorescence turn on with αS relative to Aβ1-42 [4]: 13 fold
- Fluorescence Lifetime (αS fibrils [5]): 2.09 ns
- Lifetime (αS fibrils [5]): 2.09 ± 0.01 ns
- Absorbance λmax ([6]; 25 μM in ACN): 378 nm
- Absorbance λmax [6, 12]: 386 nm
- Emission λmax ([7]; 25 μM in ACN): 565 nm
- Emission λmax [7, 12]: 603 nm
- Stokes shift ([7]; ACN/PBS buffer (1:1 v/v)): 217 nm
- Stokes shift ([7]; in ACN): 187 nm
- λabs (αS fibrils [8]; absence of αS PFFs): 370 nm
- ε (αS fibrils [8]; absence of αS PFFs): 17205 M⁻¹ cm⁻¹
- λabs (αS fibrils [8]; presence of αS PFFs, PFF 50 μM): 356 nm
- ε (αS fibrils [8]; presence of αS PFFs): 49869 M⁻¹ cm⁻¹
- emission span across solvents (solvatochromism) [9]: 490-590 nm

— patent US20240336617A1, “Substituted Bimane Compounds and Methods of Use Thereof” (THE TRUSTEES OF THE UNIVERSITY OF PENNSYLVANIA, priority 2023, published 2024)
